# Measured values: patent US20090111811A1, “1,2,4-TRIAZOLE CARBOXYLIC ACID DERIVATIVES AS MODULATORS OF MGLUR5” (AstraZeneca AB, priority 2007, published 2009)
# Legend:
# [1] = target: T1, human mGluR5d (Homo sapiens, UniProt P41594); assay: FLIPR assay, functional assessment of mGluR5 antagonism (intracellular calcium mobilization); format: cell-based; settings: cells expressing human mGluR5d; IC50 determination; read-out: FLIPR hmGluR5d
# T1 construct: expressed in transfected cells; The cells are kept under Hygromycin B and Zeocin selection; The separate IP3 assay names GHEK cells stably expressing human mGluR5d
# Excerpt: Functional Assessment of mGluR5 Antagonism in Cell Lines Expressing mGluR5D
# The properties of the compounds of the invention can be analyzed using standard assays for pharmacological activity. Examples of glutamate receptor assays are well known in the art as described in for example Aramori et al., Neuron 8:757 (1992), Tanabe et al., Neuron 8:169 (1992), Miller et al., J. Neuroscience 15: 6103 (1995), Balazs, et al., J Neurochemistry 69:151 (1997). The methodology described in these publications is incorporated herein by reference. […]
# Cells expressing human mGluR5d as described in WO97/05252 cultured in a mixture of high glucose DMEM with Glutamax (31966-021)(500 mL), 10% dialyzed fetal bovine serum (Hyclone #SH30079.03)(56 mL), 200 μg/mL Hygromycin B (Invitrogen 45-0430, 50 mg/mL)(2.2 mL), 200 μg/mL Zeocin (Invitrogen #R250-01; 100 mg/mL)(1.1 mL) are seeded at a density of 100,000 cells per well on collagen coated clear bottom 96-well plates with black sides and cells were allowed to adhere over night before experiments. […] The fluorescence signal is sampled 50 times at 1-second intervals followed by 3 samples at 5-second intervals immediately after each of the two additions. Responses are measured as the difference between the peak heights of the response to agonist, less the background fluorescence within the sample period. […]
# [2] = Determination of brain to plasma ratio in rat; format: in vivo; settings: brain and plasma, female Sprague Dawley rats, read-out: Brain/Plasma Ratio of compound in Rat
# Procedure: Brain to plasma ratios are estimated in female Sprague Dawley rats. The compound is dissolved in water or another appropriate vehicle. For determination of brain to plasma ratio the compound is administrated as a subcutaneous, or an intravenous bolus injection, or an intravenous infusion, or an oral administration. At a predetermined time point after the administration a blood sample is taken with cardiac puncture. The rat is terminated by cutting the heart open, and the brain is immediately retained. The blood samples are collected in heparinized tubes and centrifuged within 30 minutes, in order to separate the plasma from the blood cells. The plasma is transferred to 96-well plates and stored at −20° C. until analysis. The brains are divided in half, and each half is placed in a pre-tarred tube and stored at −20° C. until analysis. Prior to the analysis, the brain samples are thawed and 3 mL/g brain tissue of distilled water is added to the tubes. The brain samples are sonicated in an ice bath until the samples are homogenized. Both brain and plasma samples are precipitated with acetonitrile. After centrifugation, the supernatant is diluted with 0.2% formic acid. […] After reconstitution of the residuals the samples are ready for injection onto the HPLC column.
# T1 sequence (P41594 21-942 isoform P41594-3 limits assumed): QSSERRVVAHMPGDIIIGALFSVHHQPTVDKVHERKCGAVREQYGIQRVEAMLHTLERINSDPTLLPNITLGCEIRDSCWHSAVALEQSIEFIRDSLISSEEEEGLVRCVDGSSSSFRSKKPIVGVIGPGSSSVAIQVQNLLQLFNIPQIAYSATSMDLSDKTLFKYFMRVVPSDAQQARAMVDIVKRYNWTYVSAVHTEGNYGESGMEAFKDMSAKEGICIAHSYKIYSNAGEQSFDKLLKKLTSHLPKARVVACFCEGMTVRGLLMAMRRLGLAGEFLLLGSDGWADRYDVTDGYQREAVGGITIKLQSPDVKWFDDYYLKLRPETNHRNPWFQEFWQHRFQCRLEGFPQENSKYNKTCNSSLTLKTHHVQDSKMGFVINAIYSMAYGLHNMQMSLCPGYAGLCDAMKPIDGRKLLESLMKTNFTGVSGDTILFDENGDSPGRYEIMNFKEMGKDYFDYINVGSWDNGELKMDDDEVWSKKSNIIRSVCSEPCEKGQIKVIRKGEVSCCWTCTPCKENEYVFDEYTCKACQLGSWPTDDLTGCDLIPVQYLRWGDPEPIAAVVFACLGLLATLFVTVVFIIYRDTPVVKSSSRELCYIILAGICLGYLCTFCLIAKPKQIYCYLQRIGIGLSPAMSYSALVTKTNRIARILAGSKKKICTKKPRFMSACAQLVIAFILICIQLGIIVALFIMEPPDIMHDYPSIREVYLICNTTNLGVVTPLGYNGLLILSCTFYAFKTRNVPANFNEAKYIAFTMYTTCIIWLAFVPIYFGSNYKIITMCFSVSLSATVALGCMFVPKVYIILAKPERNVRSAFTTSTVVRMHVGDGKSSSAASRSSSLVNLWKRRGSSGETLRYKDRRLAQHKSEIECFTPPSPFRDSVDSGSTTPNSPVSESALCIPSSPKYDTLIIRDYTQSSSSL
Structure (SMILES),IC50 [1] [µM],Kp [2]
"Cn1c(-c2ccc(C(N)=O)cc2)nnc1N1CCC[C@@H]1c1cc(-c2cccc(Cl)c2)on1 [Example 6.1, 4-[5-[(2R)-2-[5-(3-Chlorophenyl)1,2-oxazol-3-yl]pyrrolidin-1-yl]-4-methyl-1,2,4-triazol-3-yl]benzamide]",0.011,< 0.01
"CNC(=O)c1ccc(-c2nnc(N3CCC[C@@H]3c3cc(-c4cccc(Cl)c4)on3)n2C)cc1 [Example 6.2, 4-[5-[(2R)-2-[5-(3-Chlorophenyl)1,2-oxazol-3-yl]pyrrolidin-1-yl]-4-methyl-1,2,4-triazo1-3-yl]-N-methyl-benzamide]",0.016,< 0.01
